For data set [1] the following is noted: multicomponent bond.
For data set [2] the following is noted: multicomponent bond; 18-membered ring; propionaldehyde/(N-isocyanimino)triphenylphosphorane; 25.0 °C.
Data set [3] can be described thus: passive artificial membrane permeability (PAMPA) assay. It counts as in vitro ADME. To be noted: FIG. 10, oxadiazole-containing macrocycles (entries 1-7) compared with homodetic counterparts (entries 8-12). From the text:
Passive membrane permeability is an important property for the development of new therapeutics. […] Using this analysis method a −log Pe value <6.0 is indicitive of a passively membrane permeable compound, while a −log Pe>6.0 is indicative of a poorly permeable or non-permeable compound. […] (entry 12).

Where [4] appears, read: 18-membered ring, propionaldehyde/(N-isocyanimino)triphenylphosphorane, DCE/MeCN 1:1, 25.0 mM, 50.0 °C, 2 steps.
[5] abbreviates: 18-membered ring, propionaldehyde/(N-isocyanimino)triphenylphosphorane, DCE/MeCN 1:1, 20.0 mM, 50.0 °C.
Where [6] appears, read: 18-membered ring, phenylacetaldehyde/(N-isocyanimino)triphenylphosphorane, DCE/MeCN 1:1, 25.0 mM, 50.0 °C, 2 steps.
Setting [7] is: 18-membered ring, propionaldehyde/(N-isocyanimino)triphenylphosphorane, DCE/MeCN 1:1, 25.0 mM, 50.0 °C.
The mark [8] stands for this setting: 15-membered ring, propionaldehyde/(N-isocyanimino)triphenylphosphorane, DCE/MeCN 1:1, 25.0 mM, 50.0 °C.
[9] abbreviates: 21-membered ring, propionaldehyde/(N-isocyanimino)triphenylphosphorane, DCE/MeCN 1:1, 25.0 mM, 50.0 °C, 2 steps.
Where [10] appears, read: 21-membered ring, propionaldehyde/(N-isocyanimino)triphenylphosphorane, DCE/MeCN 1:1, 25.0 mM, 50.0 °C.

Several values for one entry are separate records, joined by “and”; a condition that tells them apart may be missing. Equal values may be shown once. Read-outs that look alike come from different tables or passages of the source.

Turning to PGLGF, the ring closure, isolated yield in data set [1] (18-membered ring) came to 32%; in data set [1] (18-membered ring, phenylacetaldehyde/(N-isocyanimino)triphenylphosphorane, DCE/MeCN 1:1, 25.0 mM, 50.0 °C), 29%; in data set [1] (18-membered ring, propionaldehyde/(N-isocyanimino)triphenylphosphorane, DCE/MeCN 1:1, 50.0 mM, 25.0 °C), 68%. The substance also came in with a ring closure, conversion in data set [2] of 100%.

Substance PSarLGF had a ring closure, isolated yield in data set [1] (18-membered ring, α-MIDA-borylaldehyde/(N-isocyanimino)triphenylphosphorane, DCE/MeCN 1:1, 25.0 mM, 50.0 °C) of 28%.

For PWASG, the ring closure, isolated yield in data set [1] (setting [4]) worked out at 28%.

In data set [1] (setting [5]), PALGF returned a ring closure, isolated yield of 25%.

In data set [1] (setting [4]), PDAWG returned a ring closure, isolated yield of 22%.

The substance APLGK returned a ring closure, isolated yield in data set [1] (setting [4]) of 60%.

In turn, PSLYG gave a ring closure, isolated yield in data set [1] (setting [6]) of 22%.

The substance PSLYA displayed a ring closure, isolated yield in data set [1] (setting [4]) of 24%.

In the case of GPLGA, the ring closure, isolated yield in data set [1] (18-membered ring) is 13% and 25%; in data set [1] (setting [7]) it was 20%.

As to PAFA, in data set [1] (setting [8]), the ring closure, isolated yield was 23%.

PFLDA: in data set [1] (18-membered ring, acetone/(N-isocyanimino)triphenylphosphorane, DCE/MeCN 1:1 + acetone 30% v/v, 25.0 mM, 50.0 °C, 2 steps), the ring closure, isolated yield was found to be 10%.

APLGS came in with a ring closure, isolated yield in data set [1] (setting [4]) of 70%.

In data set [1] (setting [9]), PASWKG returned a ring closure, isolated yield of 7%.

For cyclo(PFLLFA), in data set [3], the “passive membrane permeability (result in words)” value is on record as “single exception”.

PFDLA: the ring closure, isolated yield in data set [1] (setting [4]) amounted to 45%.

Turning to PGLGFA, the ring closure, isolated yield in data set [1] (setting [10]) stood at 41%.

PDAWYG had a ring closure, isolated yield in data set [1] (setting [9]) of 28%.

Take AGFA: the ring closure, isolated yield in data set [1] (15-membered ring) is 32%; in data set [1] (setting [8]), 24%.

Consider PGLAF, for which, in data set [1] (setting [5]), the ring closure, isolated yield came out at 23%.

In data set [1] (24-membered ring, propionaldehyde/(N-isocyanimino)triphenylphosphorane, DCE/MeCN 1:1, 25.0 mM, 50.0 °C, 2 steps), PGRGDWA yielded a ring closure, isolated yield of 22%.

For the substance ALFA, in data set [1] (setting [8]), the ring closure, isolated yield is 20%.

In data set [1] (setting [7]), APLGA yielded a ring closure, isolated yield of 15%.

For the substance PSWAG, the ring closure, isolated yield in data set [1] (setting [6]) came out at 26%.

For the substance PSarLGFA, in data set [1] (setting [10]), the ring closure, isolated yield worked out at 42%.

Take PALAF: the ring closure, isolated yield in data set [1] (setting [5]) came to 20%.

Regarding PLDFA, in data set [1] (setting [4]), the ring closure, isolated yield worked out at 52%.

PRGDA came in with a ring closure, isolated yield in data set [1] (setting [4]) of 70%.

Consider PFLLF, for which the ring closure, isolated yield in data set [1] (18-membered ring, propionaldehyde/(N-isocyanimino)triphenylphosphorane, DCE/MeCN 1:1, 16.7 mM, 50.0 °C) is 25%.

These data come from patent US10703779B2, “Oxadiazole cyclic peptides” (THE GOVERNING COUNCIL OF THE UNIVERSITY OF TORONTO, priority 2015, dated 2020).
